Assay results published in patent US12396461B2, “Functional peptides having antimicrobial activity against phytopathogenic microorganisms” (TOYOTA JIDOSHA KABUSHIKI KAISHA, priority 2019, dated 2025).
Several values for one entry are separate records, joined by “and”; a condition that tells them apart may be missing. Equal entries are not always repeated. Where two headings read alike, the source gives them in different places.

Experiments:
[1] = tested on: Botrytis cinerea; assay: Botrytis cinerea leaf inoculation test (tomato leaf); format: in vivo; settings: FIG. 2; PDB suspension spore solution containing 100 μl peptide; 25° C. for 2 days
Description: In the present example, a suspension comprising Botrytis cinerea and a peptide to be tested was dropped on a plant leaf, and lesions were then observed by visual inspection to evaluate the antimicrobial activity of the tested peptide. First, the pores of Botrytis cinerea were suspended in a potato dextrose broth (PDB) to result in a spore concentration of 5×10^5 spores/ml, so as to prepare a PDB suspension spore solution. Subsequently, a peptide to be tested (TsORF6-1) was added to the PDB suspension spore solution, so that the final concentration of the peptide to be tested became 0 μM, 1 μM, 10 μM or 100 μM. Thereafter, 10 μl each of the PDB suspension spore solution containing the peptide to be tested was dropped on the front side and the back side of the leaf of tomato (variety name: “Momotaro Fight”). In this condition, incubation was carried out at 25° C. for 2 days. Thereafter, the front and back sides of the leaf were observed by visual inspection.

[2] = tested on: Pyricularia oryzae; format: cell-based; parameters: key to Plate antimicrobial activity test Pyricularia oryzae, level: a case where hyphae extended to the entire well and no antimicrobial activity was found is defined as “level 0,”; a case where hyphae extended to less than a half of the well and thus the peptide inhibited the growth of the hyphae is defined as “level 1,”; a case where ungerminated spores were present and the peptide partially inhibited the germination is defined as “level 2,”; a case where all spores were ungerminated and the peptide completely inhibited the germination is defined as “level 3.”; settings: 25° C. for 1 day or 2 days, microscopic observation
[3] = tested on: Colletotrichum destructivum; assay: Colletotrichum destructivum leaf inoculation test (Chinese cabbage leaf); format: in vivo; settings: Chinese cabbage leaf, 25° C. for 4 days, lesions by visual inspection, symbols ◯/Δ/X not defined
Description: In the present example, a suspension comprising Colletotrichum destructivum and a peptide to be tested was dropped on a plant leaf, and lesions were then observed by visual inspection to evaluate the antimicrobial activity of the tested peptide. First, the pores of Colletotrichum destructivum were suspended in water to result in a spore concentration of 5×10^5 spores/ml, so as to prepare a water suspension of spores. Subsequently, a peptide to be tested (TsORF6-1) was added to the water suspension of spores, so that the final concentration of the peptide to be tested became 0 μM, 1 μM, 10 μM or 100 μM. Thereafter, 10 μl each of the water suspension of spores containing the peptide to be tested was dropped on the front side and the back side of the leaf of Chinese cabbage (variety name: “Kigokoro 85”). In this condition, incubation was carried out at 25° C. for 4 days. Thereafter, the front and back sides of the leaf were observed by visual inspection.

[4] = tested on: Fusarium oxysporum; format: cell-based; parameters: key to Plate antimicrobial activity test Fusarium oxysporum, level: a case where hyphae extended to the entire well and no antimicrobial activity was found is defined as “level 0,”; a case where hyphae extended to less than a half of the well and thus the peptide inhibited the growth of the hyphae is defined as “level 1,”; a case where ungerminated spores were present and the peptide partially inhibited the germination is defined as “level 2,”; a case where all spores were ungerminated and the peptide completely inhibited the germination is defined as “level 3.”
[5] = tested on: Botrytis cinerea; format: cell-based; parameters: key to Plate antimicrobial activity test Botrytis cinerea, level: a case where hyphae extended to the entire well and no antimicrobial activity was found is defined as “level 0,”; a case where hyphae extended to less than a half of the well and thus the peptide inhibited the growth of the hyphae is defined as “level 1,”; a case where ungerminated spores were present and the peptide partially inhibited the germination is defined as “level 2,”; a case where all spores were ungerminated and the peptide completely inhibited the germination is defined as “level 3.”; settings: 25° C. for 1 day or 2 days, microscopic observation
[6] = tested on: Colletotrichum orbiculare; format: cell-based; parameters: key to Plate antimicrobial activity test Colletotrichum orbiculare, level: a case where hyphae extended to the entire well and no antimicrobial activity was found is defined as “level 0,”; a case where hyphae extended to less than a half of the well and thus the peptide inhibited the growth of the hyphae is defined as “level 1,”; a case where ungerminated spores were present and the peptide partially inhibited the germination is defined as “level 2,”; a case where all spores were ungerminated and the peptide completely inhibited the germination is defined as “level 3.”; settings: 25° C. for 1 day or 2 days, microscopic observation
[7] = tested on: Colletotrichum destructivum; format: cell-based; parameters: key to Plate antimicrobial activity test Colletotrichum destructivum, level: a case where hyphae extended to the entire well and no antimicrobial activity was found is defined as “level 0,”; a case where hyphae extended to less than a half of the well and thus the peptide inhibited the growth of the hyphae is defined as “level 1,”; a case where ungerminated spores were present and the peptide partially inhibited the germination is defined as “level 2,”; a case where all spores were ungerminated and the peptide completely inhibited the germination is defined as “level 3.”; settings: 25° C. for 1 day or 2 days, microscopic observation

MKVMIVVKTKVKNKKVAKMMVKEDEKNKRVITMKEELMVVAEEEAYRRV RGGMGW (MKVMIVVKTKVKNKKVAKMMVKEDEKNKRVITMKEELMVVAEEEAYRRVRGGMGW; listed as Solanum lycopersicum) [TsORF6, peptide consisting of 55 amino acid residues identified in tomato xylem sap; total chain]
lesion of Botrytis cinerea on tomato leaf, result in words [1]: a lesion of Botrytis cinerea was not observed | Plate antimicrobial activity test Pyricularia oryzae, level ([2]; peptide 1 μM): 0 | Plate antimicrobial activity test Pyricularia oryzae, level ([2]; peptide 10 μM): 0 | Plate antimicrobial activity test Pyricularia oryzae, level ([2]; peptide 100 μM): 2 | Leaf inoculation test Chinese cabbage/Colletotrichum destructivum ([3]; peptide 10 μM): ◯ | Leaf inoculation test Chinese cabbage/Colletotrichum destructivum ([3]; peptide 100 μM): ◯ | Plate antimicrobial activity test Fusarium oxysporum, level [4]: 3 and 0 | Plate antimicrobial activity test Botrytis cinerea, level ([5]; peptide 1 μM): 0 | Plate antimicrobial activity test Botrytis cinerea, level ([5]; peptide 10 μM): 0 | Plate antimicrobial activity test Botrytis cinerea, level ([5]; peptide 100 μM): 3 | Plate antimicrobial activity test Colletotrichum orbiculare, level ([6]; peptide 1 μM): 0 | Plate antimicrobial activity test Colletotrichum orbiculare, level ([6]; peptide 10 μM): 0 | Plate antimicrobial activity test Colletotrichum orbiculare, level ([6]; peptide 100 μM): 1 | Plate antimicrobial activity test Colletotrichum destructivum, level ([7]; peptide 1 μM): 0 | Plate antimicrobial activity test Colletotrichum destructivum, level ([7]; peptide 10 μM): 0 | Plate antimicrobial activity test Colletotrichum destructivum, level ([7]; peptide 100 μM): 0
